In patent publication US20240115554A1, “METHODS FOR TREATING OBSTRUCTIVE HYPERTROPHIC CARDIOMYOPATHY” (Cytokinetics, Incorporated, priority 2022, published 2024):

Tests used:
healthy adults = settings: in vivo
Description: Study Overview and Ethics. The study used a randomized, placebo-controlled, single-ascending dose (SAD) and multiple-ascending dose (MAD) design (FIG. 2). […] Dose escalation was to be stopped when this range was achieved, or when a non-tolerated dose was identified, if earlier.
Single-ascending dose (SAD) cohorts. The SAD portion of the study used a randomized, double-blind, placebo-controlled, sequential, escalating-dose design, in which participants received single-ascending oral doses of the study drug. Seven cohorts were dosed in sequence (FIG. 2).
Recommendations regarding dose escalation in the SAD cohorts—and in the MAD cohorts described below—were made by the treating investigator (who was blinded to treatment group) and endorsed or not by the Dose Level Review Committee (DLRC), who were unblinded. […] Criteria for escalation included that no more than 2 participants in a dose group developed an LVEF <50% and no individual developed an LVEF <45%.
Multiple-ascending dose (MAD) cohorts. The MAD cohorts also used a randomized, double-blind, placebo-controlled, sequential design.
Safety and tolerability. Safety was assessed by the incidence of adverse events (AEs) and by incidence of reduced LVEF. Treatment-emergent AEs (TEAE) were defined as AEs that began or increased after study drug administration. All AEs were coded using the Medical Dictionary for Regulatory Activities version 21.1 and graded using the National Cancer Institute Common Terminology Criteria for AEs (version 4.03) 5-point severity scale. Each AE was judged as either related or unrelated to the study drug by the treating investigator. Clinical laboratory tests were obtained at regular intervals in all cohorts.
For safety monitoring, participants in all cohorts had periodic echocardiograms, which were assessed by a cardiologist. In the SAD and MAD cohorts, echocardiograms were also reviewed by an echocardiography core laboratory for PD assessments, as described below. In addition, participants in all cohorts were monitored with continuous 12-lead ECG recording using Holter monitors. For safety monitoring, a single 12-lead ECG was extracted at screening, pre-dose, and periodically throughout follow-up, and interpreted by the investigator. In the SAD, MAD, and CYP2D6-PM cohorts, cardiodynamic ECGs (triplicate 10-second, 12-lead ECG recordings) were obtained prior to the corresponding PK blood and ECG intervals quantitated by qualified readers.

[1] = tested on: patients with symptomatic oHCM; assay: Open-label extension: background therapy reduction/withdrawal (BTR/W); type: in vivo, human
Method: Patients were dosed following the protocol of Example 3a or Example 3b. Patients were classified as receiving SoC therapy (both first line and second line) if treated with at least one beta-blocker (BB), non-dihydropyridine calcium channel blocker (CCB), or disopyramide. […] Successful BTR/W was defined as at least a dose-reduction of one medication to ≤50% of baseline. Serial metrics were collected per protocol but side effects specifically related to SoC therapy were not.

[2] = tested on: patients with symptomatic obstructive HCM (oHCM); assay: Phase 2 trial: NYHA functional class; type: in vivo, human
Description: Secondary results from the clinical study included data from Cohort 3 (n=13). […] Overall, treatment duration for each patient in the study was 10 weeks with an echocardiogram conducted 2 weeks after the last dose. Efficacy endpoints included resting and provoked LVOT gradients, NYHA class, and NT-proBNP.

[3] = tested on: patients with symptomatic obstructive HCM (oHCM); assay: Phase 2 trial: cardiac biomarkers (NT-proBNP, hs-troponin); type: in vivo, human
Method: Echocardiograms obtained every 2 weeks and 2 weeks after the last dose were analyzed for several key structural and physiologic metrics and N-terminal prohormone of brain natriuretic peptide (NT-proBNP). Secondary results from the clinical study included data from Cohort 3 (n=13). […] Overall, treatment duration for each patient in the study was 10 weeks with an echocardiogram conducted 2 weeks after the last dose. Efficacy endpoints included resting and provoked LVOT gradients, NYHA class, and NT-proBNP.

cardiac myosin = cardiac myosin (Homo sapiens, UniProt P12883); assay: Preclinical models: myocardial contractility; settings: preclinically in vitro and in vivo
cardiac myosin, sequence (P12883 whole entry): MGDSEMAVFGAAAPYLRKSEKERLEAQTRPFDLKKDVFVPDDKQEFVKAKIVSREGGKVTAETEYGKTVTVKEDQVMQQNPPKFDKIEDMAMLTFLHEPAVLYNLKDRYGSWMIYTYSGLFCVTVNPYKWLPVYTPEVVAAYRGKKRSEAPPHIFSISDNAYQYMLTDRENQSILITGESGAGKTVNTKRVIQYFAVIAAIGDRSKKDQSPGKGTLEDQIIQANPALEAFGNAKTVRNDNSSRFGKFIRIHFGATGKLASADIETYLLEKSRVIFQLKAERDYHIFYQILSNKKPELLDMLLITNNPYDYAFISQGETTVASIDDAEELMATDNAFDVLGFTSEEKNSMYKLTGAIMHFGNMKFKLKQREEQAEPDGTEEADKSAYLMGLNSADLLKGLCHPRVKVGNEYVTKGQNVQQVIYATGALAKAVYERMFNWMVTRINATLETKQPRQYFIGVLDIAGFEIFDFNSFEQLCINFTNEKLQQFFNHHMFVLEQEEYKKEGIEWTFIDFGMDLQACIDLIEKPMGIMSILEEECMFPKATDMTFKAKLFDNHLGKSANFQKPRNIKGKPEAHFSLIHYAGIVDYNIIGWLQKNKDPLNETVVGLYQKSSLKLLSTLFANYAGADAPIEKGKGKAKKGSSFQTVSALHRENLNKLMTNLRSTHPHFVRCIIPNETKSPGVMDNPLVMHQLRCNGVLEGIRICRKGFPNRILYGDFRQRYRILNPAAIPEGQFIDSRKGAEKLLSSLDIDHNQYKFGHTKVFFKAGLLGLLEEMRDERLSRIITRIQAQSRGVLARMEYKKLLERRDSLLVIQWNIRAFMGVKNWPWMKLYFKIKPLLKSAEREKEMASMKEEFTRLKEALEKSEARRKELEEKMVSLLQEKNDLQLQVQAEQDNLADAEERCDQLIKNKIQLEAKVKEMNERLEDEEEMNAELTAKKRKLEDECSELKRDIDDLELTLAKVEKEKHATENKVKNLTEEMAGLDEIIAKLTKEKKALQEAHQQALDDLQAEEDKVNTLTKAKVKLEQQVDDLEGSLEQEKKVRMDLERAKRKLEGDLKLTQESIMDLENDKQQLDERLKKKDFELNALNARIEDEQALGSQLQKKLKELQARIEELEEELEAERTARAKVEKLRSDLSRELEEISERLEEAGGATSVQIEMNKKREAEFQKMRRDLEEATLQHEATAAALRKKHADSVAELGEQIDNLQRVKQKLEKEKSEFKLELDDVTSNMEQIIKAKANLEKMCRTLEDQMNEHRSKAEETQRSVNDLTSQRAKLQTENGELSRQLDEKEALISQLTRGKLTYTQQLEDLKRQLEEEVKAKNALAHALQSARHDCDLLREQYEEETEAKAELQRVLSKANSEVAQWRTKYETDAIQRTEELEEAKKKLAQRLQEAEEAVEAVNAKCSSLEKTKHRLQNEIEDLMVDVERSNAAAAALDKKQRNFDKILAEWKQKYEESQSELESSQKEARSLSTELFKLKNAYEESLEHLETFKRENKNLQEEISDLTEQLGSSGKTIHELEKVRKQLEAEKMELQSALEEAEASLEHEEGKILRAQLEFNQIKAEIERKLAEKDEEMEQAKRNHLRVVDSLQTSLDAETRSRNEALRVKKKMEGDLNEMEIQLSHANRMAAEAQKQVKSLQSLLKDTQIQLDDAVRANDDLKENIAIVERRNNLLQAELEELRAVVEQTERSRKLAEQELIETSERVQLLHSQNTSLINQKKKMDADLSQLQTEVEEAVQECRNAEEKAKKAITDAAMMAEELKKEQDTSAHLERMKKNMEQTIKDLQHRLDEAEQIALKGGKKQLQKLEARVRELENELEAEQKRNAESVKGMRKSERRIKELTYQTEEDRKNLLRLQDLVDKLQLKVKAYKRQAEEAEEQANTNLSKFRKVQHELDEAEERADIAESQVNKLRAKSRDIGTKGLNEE
cardiac myosin, sequence (P08590 whole entry partner): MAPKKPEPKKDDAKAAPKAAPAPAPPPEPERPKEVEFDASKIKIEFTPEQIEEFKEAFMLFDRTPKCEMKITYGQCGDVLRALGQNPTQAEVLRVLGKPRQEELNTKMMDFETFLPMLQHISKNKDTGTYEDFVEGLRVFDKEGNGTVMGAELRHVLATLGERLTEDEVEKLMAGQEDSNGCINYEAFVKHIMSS
cardiac myosin, sequence (P10916 whole entry partner): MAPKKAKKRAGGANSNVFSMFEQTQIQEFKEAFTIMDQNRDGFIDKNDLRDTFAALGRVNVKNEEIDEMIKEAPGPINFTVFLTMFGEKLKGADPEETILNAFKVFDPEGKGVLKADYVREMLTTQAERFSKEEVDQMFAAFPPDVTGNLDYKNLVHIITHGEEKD
Description: This mechanism of action may be therapeutically effective in conditions characterized by excessive hypercontractility, such as HCM (e.g., obstructive HCM, also referred to as oHCM).

[4] = pooled aficamten Cohorts 1 and 2

CCc1nc(-c2ccc3c(c2)CC[C@H]3NC(=O)c2cnn(C)c2)no1 [aficamten, (R)—N-(5-(5-ethyl-1,2,4-oxadiazol-3-yl)-2,3-dihydro-1H-inden-1-yl)-1-methyl-1H-pyrazole-4-carboxamide]
participants with echocardiogram-related AEs of decreased ejection fraction <45% (healthy adults; human): 3 participants | overall safety and tolerability (healthy adults): safe and well tolerated | post-dose LVEF of 1 participant with LVEF <50% (healthy adults): 46.2% | serum chemistry, hematology, urinalysis findings (healthy adults): No clinically significant serum chemistry, hematology, or urinalysis findings | patients achieving any successful BTR/W among those attempted ([1]; 17 of 20 patients with attempted BTR/W): 85% | patients who completely discontinued at least one SoC medication ([1]; BTR/W): 10 patients | patients who withdrew from all SoC (aficamten monotherapy) ([1]; BTR/W): 5 patients | NT-pro B-type Natriuretic Peptide ([1]; post-BTR/W): 532 ± 934 pg/mL | high-sensitivity troponin I ([1]; post-BTR/W): 5.1 ± 1.6 ng/L | mean HR after BTR/W ([1]; post-BTR/W (N=14)): 74±10 bpm | mean Valsalva LVOT-G after BTR/W ([1]; post-BTR/W (N=14)): 42±26 mmHg | increase in Valsalva LVOT-G after BTR/W ([1]; pre- vs post-BTR/W (N=14)): 15 mmHg | increase in resting HR after BTR/W ([1]; pre- vs post-BTR/W (N=14)): 12 bpm | NT-pro B-type Natriuretic Peptide ([1]; pre-BTR/W): 321 ± 424 pg/mL | high-sensitivity troponin I ([1]; pre-BTR/W): 4.8 ± 1.8 ng/L | patients with unsuccessful attempted BTR/W ([1]; reinstitution of BB): 3 patients | patients with improvement in NYHA class by one or more classes ([2]; Cohort 2): 64% | NYHA improvement in baseline class III patients ([2]; Cohort 3): all baseline NYHA class III patients improved by ≥1 class | patients with ≥1 NYHA class improvement ([2]; Cohort 3 (Eleven patients)): 85% | patients converted from class III to class II or I ([2]; Cohorts 1 and 2): 7 patients | patients who improved from NYHA class III to I [2, 4]: one | patients who improved from NYHA class III to II [2, 4]: 6 patients | patients with change in NYHA class of one or more classes ([2]; pooled aficamten Cohorts 1 and 2 (15 of 28)): 53% | patients with at least some reduction in NT-proBNP levels ([3]; 25 out of the 27 patients on aficamten): 93% | proportional reduction in NT-proBNP levels compared to placebo ([3]; week 10): 62% | effect on left ventricular contractility (cardiac myosin): reduced measures of left ventricular contractility
